# Laboratory results taken from patent US10807959B2, “WDR5-MLL1 inhibitors and modulators” (Vanderbilt University, priority 2018, dated 2020).
# What was measured:
# WDR5 [1] = biological target: T1, WDR5 (Homo sapiens (Human), UniProt P61964); test: TR-FRET binding assay, displacement of 10mer-Thr-FAM probe from His-tagged WDR5
# Description: The LanthaScreenTM Elite Tb-anti-HIS Antibody from ThermoFisher Scientific was used for this purpose. […] The ratio of the 520 and 495 signals are then utilized to generate a dose-response curve to calculate an IC50 value. […] WDR[…] tag protein is used at 2 nM.
# MV4:11 cells = test: Cellular viability / anti-proliferative activity, CellTiter-Glo, 7 day protocol; assay type: cell-based, human; settings: 168 h
# Description: Anti proliferative activity using MLL-harboring cell lines. MV4:11 cells are grown in RPMI-1640 media supplemented with 10% FBS and 1% penicillin/streptomycin. Viability assays are performed by dispensing […] into each well of an opaque 384-well plate and adding compounds at the indicated concentrations in a final volume of 32 μL and a final concentration of DMSO of 0.1% for all samples. After a set incubation period, 7 day protocol, the viability of cells in each well is assessed using the CellTiter-Glo assay (Promega), read on a GloMax 96 Microplane Luminometer (Promega). Serial dilutions of each cell type are included in all assays to generate standard curves and determine assay measurements are taken within the dynamic range of the instrument. GI50 values are calculated based on three biological replicates, each with three technical replicates. Data are expressed as mean plus/minus S.E.M.
# WDR5 [2] = biological target: T1, WDR5; test: Fluorescence polarization anisotropy (FPA) competition assay, displacement of FITC-MLL or 10mer-Thr-FAM peptide; assay type: binding; settings: Table B2, WDR5 WIN-site binding affinity; values not less than 1 nM (FPA)
# Text: The assay is run in 384-well format and is read on a BioTek Cytation. […] Replicate values are fit to a 4-parameter fit in XLFit to generate a single IC50 value for each compound that is then converted to a Ki value. Experiments are repeated to generate a 2nd, independent Ki value; values from the two experiments are averaged to produce the reported Ki value for the compound.
# [3] = Homo sapiens, MV4:11 leukemia cells after a 7 day incubation period
Compound,Ki (WDR5 [1]; Inhibition of WDR5 by TR-FRET assay),"GI50 (MV4:11 cells; cellular proliferation of MV4:11 human cancer cell lines, 7 day)",Ki (WDR5 [2]),GI50 (MV4:11 cells; [3]),Ki (WDR5 [1])
"COc1cc(CNC(=O)c2cc(CNC3=NCCN3)cc(-c3ccc(F)cc3C)c2NC(C)=O)cc(OC)c1 [Example 173, 2-Acetamido-5-(((4,5-dihydro-1H-imidazol-2-yl)amino)methyl)-N-(3,5-dimethoxybenzyl)-4′-fluoro-2′-methyl-[1,1′-biphenyl]-3-carboxamide]",7.2 nM,530 nM,,,
O=C(NCc1ccc(Cl)c(Cl)c1)c1ccc(F)c(CNC2=NCCN2)c1 [Example B6],,,4.01 nM,3280 nM,
COc1cc(CNC(=O)c2cccc(CNC3=NCCN3)c2F)cc(OC)c1 [Example B21],,,17.8 nM,> 30000 nM,
Cc1cc(CNC(=O)c2cc(CNC3=NCCN3)cc(-c3cnccc3C)c2)ccc1Cl [Example B88],,,,536 nM,0.115 nM
COc1ccnc(CNC(=O)c2cc(CNC3=NCCN3)cc(-c3ccc(F)cc3C)c2)c1 [Example B114],,,,701 nM,0.228 nM
Cc1cc(CNC(=O)c2cc(CNC3=NCCC3)cc(-c3ccc(F)nc3C)c2)ccc1Cl [Example B129],,,,109 nM,0.089 nM
